# Reference: patent US12692221B2 (priority 2024, dated 2026)
# Assays:
# [1] = target: T1, norepinephrine transporter(h) (Homo sapiens, UniProt P23975); test: Radioligand binding NE transporter (h) (antagonist radioligand), [^3H]nisoxetine, CHO cells
# T1 construct: expressed in transfected cells; host or cells: CHO cells
# Protocol: (§1) Methods—Binding Assays: In vitro binding assays were performed using human recombinant receptors expressed in mammalian cell lines. Receptors were expressed in either HEK-293 or CHO cells depending on the target, and assay conditions (radioligand, concentration, nonspecific competitor, temperature, and incubation time) were optimized for each receptor. All assays were conducted in triplicate, and specific binding was quantified by scintillation counting as the detection method for each listed assay.
# (§2) Specific binding was expressed as a percentage of control-specific binding, and percent inhibition was calculated using the formula in Ex. 8 above. Half-maximal inhibitory concentrations (IC50) were determined by non-linear regression analysis of the inhibition curves using the Hill equation (see Ex. 8). Inhibition constants (Ki) were calculated using the Cheng-Prusoff equation (see Ex. 8). KD values used in these calculations had been previously established for each receptor under the assay conditions (see Table 6). Data analysis was performed using software developed at Cerep and validated against SigmaPlot 4.0 for Windows.
# H1 (h) = target: T2, H1 (h) (Homo sapiens, UniProt P35367); test: Radioligand binding H1 (h) (antagonist radioligand), [^3H]pyrilamine, HEK-293 cells
# T2 construct: expressed in transfected cells; host or cells: HEK-293 cells
# T2 sequence (P35367 whole entry): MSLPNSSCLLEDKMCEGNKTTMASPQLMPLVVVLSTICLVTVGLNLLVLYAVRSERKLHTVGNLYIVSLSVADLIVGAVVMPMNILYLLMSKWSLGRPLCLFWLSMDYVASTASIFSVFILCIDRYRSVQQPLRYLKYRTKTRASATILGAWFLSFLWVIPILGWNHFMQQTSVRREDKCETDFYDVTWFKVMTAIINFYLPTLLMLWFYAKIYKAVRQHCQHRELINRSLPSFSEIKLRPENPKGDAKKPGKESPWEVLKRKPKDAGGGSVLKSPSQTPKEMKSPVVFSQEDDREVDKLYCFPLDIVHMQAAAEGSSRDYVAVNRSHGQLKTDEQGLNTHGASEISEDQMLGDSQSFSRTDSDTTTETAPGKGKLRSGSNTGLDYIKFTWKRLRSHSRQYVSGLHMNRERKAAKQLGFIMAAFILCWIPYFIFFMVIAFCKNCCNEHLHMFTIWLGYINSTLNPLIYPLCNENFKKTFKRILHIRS
# Protocol: as §1, §2
# 5-HT3 (h) = target: T3, 5-HT3 (h) (Homo sapiens, UniProt P46098); test: Radioligand binding 5-HT3 (h) (antagonist radioligand), [^3H]BRL 43694, CHO cells
# T3 construct: expressed in transfected cells; host or cells: CHO cells
# T3 sequence (P46098 24-478): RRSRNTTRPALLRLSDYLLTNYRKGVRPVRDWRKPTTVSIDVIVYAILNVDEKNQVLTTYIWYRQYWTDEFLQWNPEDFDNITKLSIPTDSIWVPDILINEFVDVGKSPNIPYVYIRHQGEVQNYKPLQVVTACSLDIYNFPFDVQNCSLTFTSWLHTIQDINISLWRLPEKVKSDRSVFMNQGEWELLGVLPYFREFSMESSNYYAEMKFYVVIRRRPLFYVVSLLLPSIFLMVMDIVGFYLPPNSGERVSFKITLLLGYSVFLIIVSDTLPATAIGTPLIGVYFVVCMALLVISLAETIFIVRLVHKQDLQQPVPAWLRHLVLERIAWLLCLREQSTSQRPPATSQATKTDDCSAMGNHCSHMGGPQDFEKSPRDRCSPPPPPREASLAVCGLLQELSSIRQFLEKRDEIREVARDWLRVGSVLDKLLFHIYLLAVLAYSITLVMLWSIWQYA
# Protocol: as §1, §2
# GR (h) = target: T4, GR (h) (Homo sapiens, UniProt P04150); test: Radioligand binding GR (h) (agonist radioligand), [^3H]dexamethasone, IM-9 cells
# T4 construct: human endog; endogenous in cells; host or cells: IM-9 cells
# T4 sequence (P04150 1-777): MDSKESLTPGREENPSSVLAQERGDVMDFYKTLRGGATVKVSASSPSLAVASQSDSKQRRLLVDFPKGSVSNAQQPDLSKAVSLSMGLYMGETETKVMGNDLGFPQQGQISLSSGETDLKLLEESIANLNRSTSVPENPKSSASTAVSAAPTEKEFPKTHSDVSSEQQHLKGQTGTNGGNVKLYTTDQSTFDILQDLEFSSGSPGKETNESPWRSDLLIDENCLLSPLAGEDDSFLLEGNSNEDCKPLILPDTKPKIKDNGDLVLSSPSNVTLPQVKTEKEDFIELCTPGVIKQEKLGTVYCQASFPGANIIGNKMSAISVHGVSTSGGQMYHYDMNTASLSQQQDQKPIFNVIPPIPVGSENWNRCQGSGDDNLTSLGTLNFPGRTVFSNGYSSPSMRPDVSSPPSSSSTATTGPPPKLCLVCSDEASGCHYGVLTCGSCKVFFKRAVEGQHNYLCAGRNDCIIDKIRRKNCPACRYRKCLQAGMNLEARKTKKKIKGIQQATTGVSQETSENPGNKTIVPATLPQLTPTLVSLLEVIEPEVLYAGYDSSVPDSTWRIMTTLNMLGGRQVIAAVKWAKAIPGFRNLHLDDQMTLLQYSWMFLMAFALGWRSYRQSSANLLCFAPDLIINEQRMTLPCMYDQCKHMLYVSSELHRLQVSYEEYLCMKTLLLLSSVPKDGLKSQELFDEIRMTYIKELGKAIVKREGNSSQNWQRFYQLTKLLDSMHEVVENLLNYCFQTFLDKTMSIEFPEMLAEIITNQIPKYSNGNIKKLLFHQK
# PDE4D2(h) = target: T5, PDE4D2(h) (Homo sapiens, UniProt Q08499); test: Enzyme assay PDE4D2(h), [3H]cAMP, scintillation counting; type: biochemical
# T5 construct: host or cells: Sf9 cells
# T5 sequence (Q08499 303-809 limits assumed): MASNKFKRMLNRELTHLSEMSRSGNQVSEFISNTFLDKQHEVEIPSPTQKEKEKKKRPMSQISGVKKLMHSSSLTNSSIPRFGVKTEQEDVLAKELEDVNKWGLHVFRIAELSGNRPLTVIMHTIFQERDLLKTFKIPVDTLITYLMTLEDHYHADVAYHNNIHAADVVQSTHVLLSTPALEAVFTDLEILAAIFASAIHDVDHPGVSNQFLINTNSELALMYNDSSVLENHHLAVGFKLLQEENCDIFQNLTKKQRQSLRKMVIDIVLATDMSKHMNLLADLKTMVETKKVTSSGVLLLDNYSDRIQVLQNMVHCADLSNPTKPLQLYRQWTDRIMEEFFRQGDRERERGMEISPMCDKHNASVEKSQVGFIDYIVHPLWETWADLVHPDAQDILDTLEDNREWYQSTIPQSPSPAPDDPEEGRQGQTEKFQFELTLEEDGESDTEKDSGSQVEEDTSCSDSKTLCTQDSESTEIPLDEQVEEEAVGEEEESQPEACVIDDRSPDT
# Protocol: Methods—Enzyme and Uptake Assays: In vitro enzyme and uptake assays were conducted by Eurofins Discovery using human recombinant enzymes expressed in various mammalian and insect cell lines. Enzymatic activity was measured using appropriate substrates or tracers under conditions optimized for each target, as detailed in Table 7. Reactions were incubated at room temperature for a defined duration and terminated according to established protocols. The measured components (either enzymatic products or remaining substrate) were quantified using fluorimetry, photometry, scintillation counting, or LANCE technology, depending on the assay. Assay-specific parameters, including substrate identity, cell line source, incubation time, and detection method, are provided in Table 7.
# All measurements were performed in technical replicates to ensure reproducibility and data quality.
# Results were expressed both as a percentage of control-specific activity and as percent inhibition of control-specific activity. Percent activity was calculated as (measured specific activity/control specific activity)×100, and percent inhibition as 100−[(measured specific activity/control specific activity)×100], based on values obtained in the presence of test compounds. IC50 and EC50 values, along with Hill coefficients (nH), were determined by nonlinear regression analysis of inhibition or concentration-response curves generated from mean replicate values. Hill curve fitting was performed as previously described using software developed at Cerep and validated against SigmaPlot® 4.0 for Windows® (© 1997 by SPSS Inc.).
# ETA (h) = target: T6, ETA (h) (Homo sapiens, UniProt P25101); test: Radioligand binding ETA (h) (agonist radioligand), [^125I]endothelin-1, CHO cells
# T6 construct: expressed in transfected cells; host or cells: CHO cells
# T6 sequence (P25101 21-427): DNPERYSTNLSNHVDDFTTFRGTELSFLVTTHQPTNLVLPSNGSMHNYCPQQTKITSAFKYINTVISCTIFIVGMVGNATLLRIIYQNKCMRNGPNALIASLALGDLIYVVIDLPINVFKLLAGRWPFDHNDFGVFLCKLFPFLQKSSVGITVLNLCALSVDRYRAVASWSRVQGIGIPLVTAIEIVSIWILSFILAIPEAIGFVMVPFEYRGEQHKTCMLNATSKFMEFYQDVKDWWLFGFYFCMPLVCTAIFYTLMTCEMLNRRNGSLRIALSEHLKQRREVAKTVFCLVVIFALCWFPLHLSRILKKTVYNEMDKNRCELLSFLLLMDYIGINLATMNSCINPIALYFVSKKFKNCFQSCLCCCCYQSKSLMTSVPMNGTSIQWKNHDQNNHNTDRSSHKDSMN
# Protocol: as §1, §2
# [2] = target: T7, Potassium Channel hERG (human) (Homo sapiens, UniProt Q12809); test: Radioligand binding Potassium Channel hERG (human), [^3H]Dofetilide, HEK-293 cells; settings: Potassium Channel hERG(h) ([3H] Dofetilide)
# T7 construct: expressed in transfected cells; host or cells: HEK-293 cells
# T7 sequence (Q12809 whole entry): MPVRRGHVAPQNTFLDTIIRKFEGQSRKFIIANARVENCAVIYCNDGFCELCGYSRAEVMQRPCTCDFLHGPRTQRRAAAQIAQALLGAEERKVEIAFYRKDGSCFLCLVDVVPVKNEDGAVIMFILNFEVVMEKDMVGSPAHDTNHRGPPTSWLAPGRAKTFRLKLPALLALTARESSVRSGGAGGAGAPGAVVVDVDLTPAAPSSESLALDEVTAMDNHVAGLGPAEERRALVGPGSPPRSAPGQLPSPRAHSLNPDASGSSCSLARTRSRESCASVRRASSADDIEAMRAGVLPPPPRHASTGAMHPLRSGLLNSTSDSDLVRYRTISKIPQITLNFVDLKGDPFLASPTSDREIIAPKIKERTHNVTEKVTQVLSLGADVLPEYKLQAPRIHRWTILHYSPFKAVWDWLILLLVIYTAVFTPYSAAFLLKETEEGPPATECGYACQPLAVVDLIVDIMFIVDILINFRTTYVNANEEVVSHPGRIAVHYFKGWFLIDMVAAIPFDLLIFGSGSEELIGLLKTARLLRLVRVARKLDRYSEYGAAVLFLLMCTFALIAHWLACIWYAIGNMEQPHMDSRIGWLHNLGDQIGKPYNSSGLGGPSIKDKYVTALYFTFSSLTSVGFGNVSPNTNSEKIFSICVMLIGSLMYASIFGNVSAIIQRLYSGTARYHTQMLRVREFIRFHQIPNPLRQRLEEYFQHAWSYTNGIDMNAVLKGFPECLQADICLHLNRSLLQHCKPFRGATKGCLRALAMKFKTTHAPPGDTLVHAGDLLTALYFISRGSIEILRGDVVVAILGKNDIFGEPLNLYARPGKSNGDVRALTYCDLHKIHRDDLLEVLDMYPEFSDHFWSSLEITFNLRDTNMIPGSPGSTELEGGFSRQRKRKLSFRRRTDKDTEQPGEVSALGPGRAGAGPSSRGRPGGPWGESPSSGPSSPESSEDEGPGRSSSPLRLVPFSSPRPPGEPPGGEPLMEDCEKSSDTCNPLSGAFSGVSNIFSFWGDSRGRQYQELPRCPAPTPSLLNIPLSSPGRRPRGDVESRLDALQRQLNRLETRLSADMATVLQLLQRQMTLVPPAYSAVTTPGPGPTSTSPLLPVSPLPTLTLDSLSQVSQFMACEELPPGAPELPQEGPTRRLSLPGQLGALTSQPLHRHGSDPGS
# Protocol: as §1, §2
# T1 sequence (P23975 whole entry): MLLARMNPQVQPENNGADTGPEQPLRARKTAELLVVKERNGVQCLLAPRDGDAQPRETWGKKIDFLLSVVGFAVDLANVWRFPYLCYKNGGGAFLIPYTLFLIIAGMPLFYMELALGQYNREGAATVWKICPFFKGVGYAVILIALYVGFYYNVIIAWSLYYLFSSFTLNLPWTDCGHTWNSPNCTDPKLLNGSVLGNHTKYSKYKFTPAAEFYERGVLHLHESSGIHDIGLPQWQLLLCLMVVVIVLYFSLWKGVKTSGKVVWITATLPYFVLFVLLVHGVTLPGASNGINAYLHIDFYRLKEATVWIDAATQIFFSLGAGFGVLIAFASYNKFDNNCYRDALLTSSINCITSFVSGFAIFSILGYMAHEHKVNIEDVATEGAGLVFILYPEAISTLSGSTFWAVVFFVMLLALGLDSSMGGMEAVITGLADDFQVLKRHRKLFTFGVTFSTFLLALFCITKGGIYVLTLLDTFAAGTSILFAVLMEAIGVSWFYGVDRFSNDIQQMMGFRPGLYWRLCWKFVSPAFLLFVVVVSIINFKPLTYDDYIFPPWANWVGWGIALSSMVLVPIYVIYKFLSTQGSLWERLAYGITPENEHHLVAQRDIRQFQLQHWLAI
Structure (SMILES),Mean Percent Inhibition of Control Specific Binding [1] [%],Mean Percent Inhibition of Control Specific Binding (H1 (h)) [%],Mean Percent Inhibition of Control Specific Binding (5-HT3 (h)) [%],Mean Percent Inhibition of Control Specific Binding (GR (h)) [%],Mean Percent Inhibition of Control Specific Binding (PDE4D2(h)) [%],Mean Percent Inhibition of Control Specific Binding (ETA (h)) [%],Mean Percent Inhibition of Control Specific Binding [2] [%]
"COCCc1cc(CCN)c(OC)cc1Br [Compound 2CB-5ME, reference compound]",11.4,7.3,−1.6,−0.5,−5.7,−3.5,8.5
"COCc1cc(CCN)c(OC)cc1CC(C)C [Compound 2CiBu-5MM, 2-[4-isobutyl-2-methoxy-5-(methoxymethyl)phenyl]ethanamine]",−5.4,0.6,2.6,−3.9,3.0,−1.5,4.4
"COCc1cc(CCN)c(O)cc1CC(C)C [2CiBu-2OH-5MM, 2-(2-aminoethyl)-5-isobutyl-4-(methoxymethyl)phenol]",17.4,5.7,−3.9,−3.1,67.4,−9.0,9.7
"COCc1cc(CCN)c(OC)cc1Br [Compound 2CB-5MM, 2-(4-bromo-2-methoxy-5-(methoxymethyl)phenyl)ethan-1-amine]",0.2,7.3,11.6,−7.2,−0.5,−6.5,13.9
